Data reported in patent US20260191853A1, “METHOD OF TREATING DRUG-INDUCED BRADYARRHYTHMIA” (OSAKA UNIVERSITY, priority 2022, published 2026).
Where a name gives a salt, the structure may show the parent alone. Each block holds one compound with its values, some of them ahead of it.

What was measured:
Hartley guinea pigs [1] = experiment: Termination effect on fingolimod-induced bradyarrhythmia in isoflurane-anesthetized guinea pig model; type: in vivo; conditions: 30 minutes after initiation of administration of 0.1 mg/kg i.v.; FIG. 5
Text: Hartley guinea pigs (7 to 10 weeks old, male, available from Japan SLC, Inc.) were subjected to anesthetic induction by inhalation of isoflurane (available from Pfizer Japan Inc.), and each animal was held on an operating table having a heater function. The trachea was incised, and a tracheal cannula (KN-375, available from Natsume Seisakusho Co., Ltd.) was inserted. The tracheal cannula was connected to a ventilator (SN-480-7, available from Shinano Seisakusho Co., Ltd.), and artificial respiration was controlled by supplying 100% oxygen at a volume of 10 mL and a ventilation rate of 60 times/minute. Isoflurane (available from Pfizer Japan Inc.) anesthesia (about 1 to 4%, carrier gas: 100% oxygen) was used for maintenance of anesthesia. A catheter (BD intramedic polyethylene tubing PE50, available from Becton, Dickinson and Company) charged with 50 units/mL heparin (available from AY PHARMACEUTICALS CO., LTD.) was inserted into each of the carotid artery and the jugular vein and placed in the blood vessel. Systemic blood pressure was measured with a high-sensitivity DC amplifier (AD-611J, available from NIHON KOHDEN CORPORATION) via the catheter placed in the carotid artery. Electrodes were attached to the body surface, and a body surface electrocardiogram was measured with a high-sensitivity amplifier (AB-611J, available from NIHON KOHDEN CORPORATION). Blood pressure and electrocardiogram data were acquired and analyzed with PowerLab/Labchart system (available from ADInstruments). After stabilization of each parameter, fingolimod hydrochloride (available from Nissan Chemical Corporation) was continuously administered intravenously at 0.1 mg/kg for 10 minutes via the catheter placed in the jugular vein, followed by observation of the presence or absence of atrioventricular block. After confirmation that atrioventricular block continued for 10 minutes from the onset thereof, a solvent or compound (I) dihydrochloride was continuously administered intravenously at 0.1 mg/kg for 30 minutes, and the effect of terminating atrioventricular block was observed during the intravenous administration. The solvent used was saline (available from Otsuka Pharmaceutical Factory, Inc.). Data were recorded and blood was collected 10, 20, and 30 minutes after initiation of administration of compound (I) dihydrochloride and at the time of termination of atrioventricular block. The observation was terminated 30 minutes after initiation of the administration, and the animal was euthanized by exsanguination or intravenous administration of a large amount of saturated potassium chloride solution under isoflurane anesthesia. Data were analyzed for the presence or absence of the termination, the time required for the termination, and the plasma concentration of compound (I) at the time of termination. The plasma was collected by centrifuging the blood and cryopreserved at about −20° C. After thawing of the plasma, plasma drug concentrations were measured using LC/MS/MS after deproteinization with acetonitrile.
In Table 1, the measurements are shown as mean±standard error.

Hartley guinea pigs [2] = experiment: Preventive effect on fingolimod-induced bradyarrhythmia in isoflurane-anesthetized guinea pig model; type: in vivo; conditions: fingolimod hydrochloride 0.1 mg/kg i.v. over 10 min, compound (I) non-administration group
Procedure: A solvent or compound (I) (free form) was administered by oral gavage at a dose of 1, 3, or 10 mg/kg (volume: 5 mL/kg) to Hartley guinea pigs (7 to 10 weeks old, male, available from Japan SLC, Inc.). After completion of the administration, each animal was subjected to anesthetic induction by inhalation of isoflurane (available from Pfizer Japan Inc.), and the animal was held on an operating table having a heater function. The trachea was incised, and a tracheal cannula (KN-375, available from Natsume Seisakusho Co., Ltd.) was inserted. The tracheal cannula was connected to a ventilator (SN-480-7, available from Shinano Seisakusho Co., Ltd.), and artificial respiration was controlled by supplying 100% oxygen at a volume of 10 mL and a ventilation rate of 60 times/minute. The solvent used was 0.5 w/v % methyl cellulose 400 solution (available from FUJIFILM Wako Pure Chemical Corporation). Isoflurane (available from Pfizer Japan Inc.) anesthesia (about 1 to 4%, carrier gas: 100% oxygen) was used for maintenance of anesthesia. A catheter (BD intramedic polyethylene tubing PE50, available from Becton, Dickinson and Company) charged with 50 units/mL heparin (available from AY PHARMACEUTICALS CO., LTD.) was inserted into each of the carotid artery and the jugular vein and placed in the blood vessel. Systemic blood pressure was measured with a high-sensitivity DC amplifier (AD-611J, available from NIHON KOHDEN CORPORATION) via the catheter placed in the carotid artery. Electrodes were attached to the body surface, and a body surface electrocardiogram was measured with a high-sensitivity amplifier (AB-611J, available from NIHON KOHDEN CORPORATION). Blood pressure and electrocardiogram data were acquired and analyzed with PowerLab/Labchart system (available from ADInstruments). Analysis items are systolic blood pressure, diastolic blood pressure, average blood pressure, heart rate, P-wave width, PR interval, QRS width, QT interval, and corrected QT interval. Corrected QT interval was calculated using the fridericia formula (QTc=QT interval/RR interval^1/3). After stabilization of each parameter, fingolimod hydrochloride (synthesized with reference to WO 2000/027798) was continuously administered intravenously at 0.1 mg/kg for 10 minutes via the catheter placed in the jugular vein, followed by observation of the presence or absence of the onset of bradyarrhythmia for 60 minutes. The solvent used was saline (available from Otsuka Pharmaceutical Factory, Inc.). Data were recorded and blood was collected 5, 10, 15, 20, 30, and 60 minutes after initiation of administration of fingolimod hydrochloride. The observation was terminated 60 minutes after initiation of the administration, and the animal was euthanized by exsanguination or intravenous administration of a large amount of pentobarbital or saturated potassium chloride solution under isoflurane anesthesia. Data were analyzed for atrial beating rate over time, ventricular beating rate over time, electrocardiographic parameters, the presence or absence of the onset of atrioventricular block, and plasma concentrations of compound (I), fingolimod, and fingolimod phosphorylated form. The plasma was collected by centrifuging the blood and cryopreserved at about −20° C. After thawing of the plasma, plasma drug concentrations were measured using LC/MS/MS after deproteinization with acetonitrile.
Atrioventricular block was defined as follows.
Second-degree atrioventricular block: atrial activation wave (P wave) is normal, which is followed by or not followed by ventricular activation wave (QRS wave).
Third-degree atrioventricular block: there is no electrical conduction between the atrium and the ventricle, and atrial and ventricular activation waves are generated independently, resulting in atrioventricular dissociation.
In FIG. 1, the measurements are shown as mean±standard error. […]

[3] = system: human iPS cell-derived atrial myocytes; experiment: Siponimod-induced decrease in beating rate in human iPS cell-derived atrial myocytes (multi-electrode array); type: cell-based; conditions: 0.1 μM siponimod, observed 10 minutes
Procedure: Cryopreserved human iPS cell-derived atrial myocytes (Human iPSC-derived atrial cardiomyocytes, available from Axol Bioscience) were thawed and seeded at 1,400,000 cells/well on a fibronectin-coated 6-well plate, followed by culturing in an incubator at 37° C. and 5% CO2 for 11 days. During the culture, the entire amount of medium was changed every other day. After the elapse of 11 days, human iPS cell-derived atrial myocytes that started beating were removed from the plate and recovered with TrypLE Select Enzyme (available from ThermoFisher Scientific). The atrial myocytes were seeded at 25,000 cells/2 μL on a fibronectin-coated 6-well MEA Chip (60-6well MEA200/30iR-Ti-tcr, available from Multi Channel Systems) and cultured in an incubator at 37° C. and 5% CO2 for one hour. Thereafter, 400 μL of medium was added and cultured in an incubator at 37° C. and 5% CO2 for 13 days. During the culture, a half amount of the medium was changed every other day. After the elapse of […], the MEA Chip was set in a multi-electrode array system (MEA2100, available from Multi Channel Systems) to thereby obtain extracellular potentials under spontaneous beating. […] Data were analyzed with Labchart System (available from ADInstruments).
In FIG. 6, the measurements are shown as mean±standard error, and (I) denotes compound (I).

Hartley guinea pigs [4] = experiment: Preventive effect on siponimod-induced bradyarrhythmia in isoflurane-anesthetized guinea pig model; type: in vivo; conditions: siponimod 0.01 mg/kg i.v. over 10 min, compound (I) non-administration group
Procedure: A solvent or compound (I) (free form) was administered by oral gavage at a dose of 0.3. 1, or 3 mg/kg (volume: 5 mL/kg) to Hartley guinea pigs (7 to 10 weeks old, male, available from Japan SLC, Inc.). After completion of the administration, each animal was subjected to anesthetic induction by inhalation of isoflurane (available from Pfizer Japan Inc.), and the animal was held on an operating table having a heater function. The trachea was incised, and a tracheal cannula (KN-375, available from Natsume Seisakusho Co., Ltd.) was inserted. The tracheal cannula was connected to a ventilator (SN-480-7, available from Shinano Seisakusho Co., Ltd.), and artificial respiration was controlled by supplying 100% oxygen at a volume of 10 mL and a ventilation rate of 60 times/minute. The solvent used was 0.5 w/v % methyl cellulose 400 solution (available from FUJIFILM Wako Pure Chemical Corporation). Isoflurane (available from Pfizer Japan Inc.) anesthesia (about 1 to 4%, carrier gas: 100% oxygen) was used for maintenance of anesthesia. A catheter (BD intramedic polyethylene tubing PE50, available from Becton, Dickinson and Company) charged with 50 units/mL heparin (available from AY PHARMACEUTICALS CO., LTD.) was inserted into each of the carotid artery and the jugular vein and placed in the blood vessel. Systemic blood pressure was measured with a high-sensitivity DC amplifier (AD-611J, available from NIHON KOHDEN CORPORATION) via the catheter placed in the carotid artery. Electrodes were attached to the body surface, and a body surface electrocardiogram was measured with a high-sensitivity amplifier (AB-611J, available from NIHON KOHDEN CORPORATION). Blood pressure and electrocardiogram data were acquired and analyzed with PowerLab/Labchart system (available from ADInstruments). Analysis items are systolic blood pressure, diastolic blood pressure, average blood pressure, heart rate, P-wave width, PR interval, QRS width, QT interval, and corrected QT interval. Corrected QT interval was calculated using the Fridericia formula (QTc=QT interval/RR interval^1/3). After stabilization of each parameter, siponimod (synthesized according to WO 2017/120124) was continuously administered intravenously at 0.01 mg/kg for 10 minutes via the catheter placed in the jugular vein, followed by observation of the presence or absence of the onset of bradyarrhythmia for 60 minutes. The solvent used was a solution prepared by mixing of Polyethylene Glycol 400 (available from KANTO CHEMICAL CO., INC.) and dimethyl sulfoxide (available from FUJIFILM Wako Pure Chemical Corporation) at 9: 1 (volume ratio). Data were recorded and blood was collected 5, 10, 15, 20, 30, and 60 minutes after initiation of administration of siponimod. The observation was terminated 60 minutes after initiation of the administration, and the animal was euthanized by exsanguination or intravenous administration of a large amount of saturated potassium chloride solution under isoflurane anesthesia. Data were analyzed for atrial beating rate over time, ventricular beating rate over time, electrocardiographic parameters, the presence or absence of the onset of atrioventricular block, and plasma concentrations of compound (I) and siponimod. The plasma was collected by centrifuging the blood and cryopreserved at about −20° C. After thawing of the plasma, plasma drug concentrations were measured using LC/MS/MS after deproteinization with acetonitrile.
In FIG. 3, the measurements are shown as mean±standard error. Abbreviations, etc. are as follows. • (I): compound (I) • Atrioventricular block: the presence or absence of atrioventricular block • (x denotes second- or third-degree atrioventricular block) • PR & QRS: atrioventricular conduction time and ventricular activation time • QT & QTcF: ventricular repolarization time and heart rate-corrected ventricular repolarization time • Plasma concentration: the plasma concentration of siponimod or compound (I)

Structure (SMILES): Cc1cc(CO)nc2cc3c(cc12)OC(C)(C)[C@H](O)[C@H]3NCCc1ccccc1 [compound (I) dihydrochloride]
fingolimod-induced bradycardia (heart rate, electrocardiogram) (Hartley guinea pigs [1]): completely recovered

Structure (SMILES): CCCCCCCCc1ccc(CCC(N)(CO)CO)cc1 [fingolimod, reference compound]
cases with fingolimod-induced atrioventricular block (Hartley guinea pigs [2]): four out of four

beating rate after addition of siponimod (sinus bradycardia) [3]: ≤ 50 beats/minute
Structure (SMILES): CCc1cc(/C(C)=N/OCc2ccc(C3CCCCC3)c(C(F)(F)F)c2)ccc1CN1CC(C(=O)O)C1 [siponimod, reference compound]
cases with siponimod-induced atrioventricular block (Hartley guinea pigs [4]): three out of four
